Where “and” joins values, the source holds several entries; their conditions need not be identical. Equal entries are not always repeated. Where two headings read alike, the source gives them in different places.
What was measured:
Format in all cases: cell-based, human
[1] = test system: DNA synthesis in HL-60 cells; assay: Inhibition of [3H-methyl]dThd incorporation into DNA of HL-60 cells; conditions: for inhibition at 30 µg/mL: Homo sapiens, HL-60, at 0.03 mg/mL, read-out: % Inhibition of Precursor Incorporation, DNA; for inhibition of DNA synthesis, in words: HL-60, 0.03 mg/ml; for % Inhibition of Precursor Incorporation, DNA: at 0.03 mg/mL
Experimental: (§1) For the precursor incorporation studies, each compound (in 0.3% dimethylsulfoxide) was preincubated with HL-60 cells (a human promyelocytic leukemic cell line) 2.2×10^6 /ml, for 15 min prior to the addition of the labeled precursor (obtained from ICN Radiochemicals, Irvine, Calif.) and then incubated for 30 min. The precursors used for incorporation into DNA, RNA and protein were [^3 H-methyl]dThd (1 μCi, 0.15 nmole/ml), [5-^3 H]Cyd (5 μCi, 0.23 nmol/ml), and [2,3,4,5-^3 H]L-Leu (0.5 μCi, 0.004 nmol/ml), respectively. Incorporation of radioactivity in the absence of a plant compound and in the presence of dimethylsulfoxide was used as a control.
Human promyelocytic cells (HL-60) were incubated with [^3 H-methyl]dTHDin the presence and absence of a plant alkaloid.

[2] = test system: RNA synthesis in HL-60 cells; assay: Inhibition of [5-3H]Cyd incorporation into RNA of HL-60 cells; conditions: Homo sapiens, HL-60, 0.5 h
Experimental: as §1, with “control. The control values for incorporation into DNA, RNA and protein were 8,500, 5,600 and 1,700 cpm/10^6 cells, respectively. The incubation conditions and the procedures for isolating DNA, RNA and protein fractions have been previously described (Chou, T. -C., et al., Cancer Res., 43:3074-3079 (1983)) .” for “control.”
(§2) HL-60 cells were incubated with [5-^3 H]Cyd or [2,3,4,5-^3 H]L-Leu in the presence and absence of alkaloids (0.03 mg/ml) in order to find the effects of the alkaloid on the incorporation of labeled precursors into RNA or protein. […] Over 90% of RNA and protein biosynthesis were inhibited by compounds 11, 16, 17, 22, 28, 29and 30 (Table 1). […] In most cases, the amount required to inhibit precursor incorporation into DNA was less than that to inhibit precursor incorporation into RNA or protein (i.e. DNA synthesis is inhibited most potently).

[3] = test system: protein synthesis in HL-60 cells; assay: Inhibition of [2,3,4,5-3H]L-Leu incorporation into protein of HL-60 cells; conditions: Homo sapiens
Experimental: as §1, with “control. The control values for incorporation into DNA, RNA and protein were 8,500, 5,600 and 1,700 cpm/10^6 cells, respectively. The incubation conditions and the procedures for isolating DNA, RNA and protein fractions have been previously described (Chou, T. -C., et al., Cancer Res., 43:3074-3079 (1983)) .” for “control.”
as §2

HL-60 cells = assay: HL-60 cell growth inhibition, 72 h; conditions: HL-60, 72 h; for IC50: read-out: Cell Growth Inhibition, IC50
Experimental: For growth inhibition studies, HL-60 cells (1.5×10^5 /ml) were grown in RPMI 1640 media (GIBCO, Grand Island, N.Y.) at 37° C. in humidified 5% CO2 for 72 h. Viable cells were determined using trypan blue exclusion and counted in a hemocytometer. The fractional inhibition for each compound concentration (0.0025-0.05 mg/ml in 0.1% dimethylsulfoxide) was analyzed with the median-effect plot using a computer program (Chou, T. -C and P. Talalay, Adv. Enzyme Regul., 22:27-55 (1984); Chou, J. and T. -C. thou, Dose-Effect analysis with microcomputers: Quantitation of ED50, LD50, synergism, antagonism, low-dose risk, receptor ligand binding and enzyme kinetics. A computer software disk for Apple II series or IBM-PC and manual. Elsevier Science Publishers, Elsevier-BioSoft, Cambridge, United Kingdom (1986)). The median-effect concentration (IC50) was determined automatically for three to five dose-effect levels. Cell growth in the absence of plant compound and in the presence of dimethylsulfoxide was used as a control. Dimethylsulfoxide alone inhibited cell growth 3.9%±1.5% during the 72 h incubation period. Those data with negative values represent activations.

[4] = at 0.03 mg/mL, read-out: % Inhibition of Precursor Incorporation, RNA
[5] = HL-60, at 0.03 mg/mL, read-out: % Inhibition of Precursor Incorporation, Protein
[6] = read-out: % Inhibition of Precursor Incorporation, RNA, at 0.03 mg/mL
[7] = HL-60, read-out: % Inhibition of Precursor Incorporation, Protein, at 0.03 mg/mL

Compound | inhibition at 30 µg/mL [1] | inhibition at 30 µg/mL [2, 4] | inhibition at 30 µg/mL [3, 5] | IC50 (HL-60 cells; Homo sapiens) | inhibition of DNA synthesis, in words [1] | cell growth inhibition, in words (HL-60 cells) | inhibition at 30 µg/mL [2, 6] | inhibition at 30 µg/mL [3, 7] | % Inhibition of Precursor Incorporation, DNA [1] | Cell Growth Inhibition, IC50 (HL-60 cells) | IC50 (HL-60 cells)
COc1cc(O)c2c(=O)c3ccc(OC)c(OC)c3n(C)c2c1 | 34.8% | 95% | 28.3% | > 40 µg/mL and > 127 µM |  |  |  |  |  |  | 
O=c1c2ccccc2[nH]c2cc(O)cc(O)c12 [Compound 4, 1,3-Dihydroxy-acridone] | 76.7% | 50.6% | 62.8% | 20.6 µg/mL and 90.7 µM | no significant activity |  |  |  |  |  | 
CC(=O)Oc1cc(OC(C)=O)c2c(=O)c3ccccc3[nH]c2c1 [Compound 5, 1,3-O,O-Diacetyl-acridone] | 39.7% | 24.9% | 26.9% | > 40 µg/mL and > 129 µM | no significant activity |  |  |  |  |  | 
CC(=O)Oc1cc(OC(C)=O)c2c(=O)c3ccccc3n(C)c2c1 [Compound 6] | 23% | 2.7% | -12.8% | > 40 µg/mL and > 123 µM |  |  |  |  |  |  | 
COc1cc(O)c2c(=O)c3ccccc3n(C)c2c1 [Compound 7, 1-Hydroxy-3-methoxy N-methyl acridone] | 48.4% | 39.5% | 25.2% | > 40 µg/mL and > 157 µM |  |  |  |  |  |  | 
COc1cc(O)cc2c1c(=O)c1ccccc1n2C [Compound 8, 1-Methoxy-3-Hydroxy N-methyl acridone] | 53.3% | 51.2% | 25.7% | > 40 µg/mL and > 157 µM |  |  |  |  |  |  | 
COc1cc(OC(C)=O)cc2c1c(=O)c1ccccc1n2C [Compound 9, 3-O-Acetyl-1-methoxy-R-methyl acridone] | 71.1% | 61.6% | 30% | 30.5 µg/mL and 103 µM |  |  |  |  |  |  | 
COc1cc(OC)c2c(=O)c3ccccc3n(C)c2c1 [Compound 10, 1,3-Dimethoxy-N-methyl acridone] | > 90% | 65.8% | 64.4% | 9.2 µg/mL and 34.2 µM | excellent inhibitory effect |  |  |  |  |  | 
CC(C)=CCc1c(O)cc(O)c2c(=O)c3ccccc3n(C)c12 [Compound 11, Glycocitrine-II] | 99.5% | 97.1% | 95.3% | 8.2 µg/mL and 26.5 µM | potent inhibitor |  |  |  |  |  | 
COc1cc(O)c2c(=O)c3ccccc3n(C)c2c1CC=C(C)C [Compound 12, 3-O-methyl-glycocitrine-II] | 61.8% | 53.8% | 50.3% | > 40 µg/mL and > 124 µM | only moderate inhibitory activity |  |  |  |  |  | 
COc1cc(O)c2c(=O)c3cccc(O)c3n(C)c2c1CC=C(C)C [Compound 13, Glycocitrine-I] | 97.5% | 43.9% | 41.1% | 1.4 µg/mL and 4.1 µM |  | significant activity against leukemic cells in vitro |  |  |  |  | 
COc1cc(OC(C)=O)c2c(=O)c3cccc(OC(C)=O)c3n(C)c2c1CC=C(C)C [Compound 14, OO-Diacetyl-glycocitrine-I] | 94.7% | 63.8% | 89.8% | 5.6 µg/mL and 13.2 µM |  | significant activity against leukemic cells in vitro |  |  |  |  | 
COc1c(O)cc(O)c2c(=O)c3cccc(O)c3n(C)c12 [Compound 15, Citrusinine-II] | 88.5% |  |  | 17 µg/mL and 59.2 µM |  |  | 91.7% | 54.3% |  |  | 
COc1cc(O)c2c(=O)c3cccc(O)c3n(C)c2c1OC [Compound 16, Citrusinine-I] | 97% |  |  | 2.6 µg/mL and 8.6 µM |  | significant activity against leukemic cells in vitro | 96.5% | 87% |  |  | 
COc1cc(OC)c2c(=O)c3cccc(OC)c3n(C)c2c1OC [Compound 18, 1,3,4,5-Tetra-methoxy-N-methyl acridone] | 91.5% | 57% | 71.8% | 13.3 µg/mL and 40.4 µM |  |  |  |  |  |  | 
COc1ccc2c(=O)c3c(O)cc(O)cc3n(C)c2c1OC [Compound 19, Grandisine-II] | 76.5% | 96% | 27.3% | > 40 µg/mL and > 133 µM |  |  |  |  |  |  | 
COc1ccc2c(=O)c3c(O)cc(OC(C)=O)cc3n(C)c2c1OC [Compound 20, O-Acetyl-grandisine-II] | 24.4% | 77% | -5.6% | 38.7 µg/mL and 113 µM |  |  |  |  |  |  | 
COc1cc(O)c2c(=O)c3ccc(OC)c(O)c3n(C)c2c1 [Compound 21, Grandisine-I] | 71.7% | 69.5% | 22.8% | > 40 µg/mL and > 133 µM |  |  |  |  |  |  | 
COc1cc(O)c2c(=O)c3ccc(O)c(OC)c3n(C)c2c1 [Compound 22, Citpressine-I] |  |  |  |  |  |  |  |  | 65.0% | > 40 µg/mL | > 133 µM
COc1cc(OC)c2c(=O)c3ccc(OC)c(OC)c3n(C)c2c1 [Compound 24, 1-O-Methyl-citpressine-II] | 93.1% | 67.3% | 75.6% | 22 µg/mL and 66.8 µM |  |  |  |  | 93% |  | 
COc1c(O)ccc2c(=O)c3c(O)c(CC=C(C)C)c(O)cc3n(C)c12 [Compound 25, Buntanine] | 96.6% | 29.8% | 40.1% | 3.6 µg/mL and 10.1 µM |  |  |  |  |  |  | 
CC(C)=CCc1c(O)c(CC=C(C)C)c2c(c1O)c(=O)c1cccc(O)c1n2C [Compound 26, N-methyl-atalaphylline] | 99.6% |  |  | 5.4 µg/mL and 13.7 µM |  | significant activity against leukemic cells in vitro | 28.2% | 44.3% |  |  | 
COc1c(O)ccc2c(=O)c3c(O)cc(O)c(CC=C(C)C)c3n(C)c12 [Compound 27, Prenylcitpressine] | 52.4% | 21.1% | -15.7% | 36 µg/mL and 94.5 µM |  |  |  |  |  |  | 
COc1c(OC(C)=O)ccc2c(=O)c3c(O)cc(OC(C)=O)c(CC=C(C)C)c3n(C)c12 [Compound 28, 3,6-O,O-Diacetyl-prenylcitpressine] | 96.8% | 96.1% | 89.6% | 2.2 µg/mL and 5 µM |  | significant activity against leukemic cells in vitro |  |  |  |  | 
